From patent publication US20240300946A1, “EGFR INHIBITORS” (Blueprint Medicines Corporation, priority 2021, published 2024)
Where two headings read alike, the source gives them in different places.

Experiments:
[1] = molecular target: T1, EGFR (L858R T790 M C797S) (Homo sapiens, UniProt P00533, C797S/L858R/T790M); test: Biochemical EGFR inhibition assay (Caliper mobility shift), LRTMCS mutant at 1 mM ATP; conditions: read-out: LRTMCS (PH) IC50 (nM) @ 1 mM ATP (Num)
T1 construct: purchased SignalChem E10-122VG
Description: Inhibitory effects of the compounds of the disclosure were measured in biochemical assays that measure the phosphorylation activity of EGFR enzyme phosphorylates 2.5 micromolar 5-FAM-[…]-CONH2 peptide substrate (FL-Peptide 22, PerkinElmer, 760366) in the presence of adenosine-5′-triphosphate (ATP) and varying concentrations of the test compound in 100 mM 2-[4-(2-hydroxyethyl)piperazin-1-yl]ethanesulfonic acid (HEPES), pH 7.5, 10 mM MgCl2, 0.015% Brij-35, 1 mM dithiothreitol (DTT), 1.0% dimethylsulfoxide (DMSO). Assays were performed at 1.0 mM ATP or at ATP Km of the EGFR enzymes. Reactions proceeded until between 10% to 20% total peptides were phosphorylated at room temperature (25° C.) and were terminated with 35 mM 2,2′,2″,2′″-(ethane-1,2-diyldinitrilo)tetraacetic acid (EDTA). Product was detected using the Caliper mobility shift detection method where the phosphorylated peptide (product) and substrate were electrophoretically separated and measured. Percent activity was plotted against log concentration of compound and points to generate an apparent IC50. The following enzyme forms of EGFR were examples that were used in these assays: • EGFR WT (SignalChem, E10-112G) • EGFR (L858R T790 M C797S) (SignalChem, E10-122VG) • EGFR (d746-750) T790 M C797S (SignalChem, E10-122UG) • EGFR L858R (SignalChem, E10-122BG) • EGFR (d746-750) (SignalChem, E10-122JG)

[2] = tested on: phosphorylation of EGFR in NCI-H1975 cell line that harbors the EGFR L858R T790 M mutations; test: NCI-H1975 pEGFR AlphaLISA assay; format: cell-based; conditions: p-EGFR (Tyr1068), 4-5 hours incubation, read-out: Ext pEGFR H1975 GMean IC50 (nM) Protocol: @ Pharmaron AlphaLISA (Num)
Description: Inhibitory effects of the compounds of the disclosure were evaluated in cellular assays that measure level of intracellular phosphorylation of EGFR in NCI-H1975 cell line that harbors the EGFR L858R T790 M mutations (ATCC, CRL-5908) using AlphaLISA sureFire ultra p-EGFR (Tyr1068) assay kit (PerkinElmer, ALSU-PEGFR-A50K). The NCI-H1975 cells were seeded at 12.5K/well in 22 μL into 384 well opti plate (PerkinElmer, 6007299) and adhering overnight at 37° C./5% CO2. On the next day, the test compounds and DMSO control were added into H1975 cell plate followed by incubation at 37° C./5% CO2 for 4-5 hours. The cells were then spin down in the 384-well plate and lysed with 10 μL of 1× AlphaLISA lysis buffer followed by shaking at 600 rpm for 10 minutes at room temperature. After that, 5 μL of an acceptor bead mix was added to each well followed by incubation at room temperature for 1.5-2 h in dark. Then 5 μL of a donor bead mix was added to each well followed by overnight incubation at room temperature in dark. On the next day, the plate was read at a compatible plate reader to obtain pEGFR signal. Percent of pEGFR inhibition was plotted against log concentration of compounds to generate IC50 values.

[3] = Homo sapiens, NCI-H1975, NCI-H1975 cells

T1 sequence (P00533 25-1210 T790M/C797S/L858R): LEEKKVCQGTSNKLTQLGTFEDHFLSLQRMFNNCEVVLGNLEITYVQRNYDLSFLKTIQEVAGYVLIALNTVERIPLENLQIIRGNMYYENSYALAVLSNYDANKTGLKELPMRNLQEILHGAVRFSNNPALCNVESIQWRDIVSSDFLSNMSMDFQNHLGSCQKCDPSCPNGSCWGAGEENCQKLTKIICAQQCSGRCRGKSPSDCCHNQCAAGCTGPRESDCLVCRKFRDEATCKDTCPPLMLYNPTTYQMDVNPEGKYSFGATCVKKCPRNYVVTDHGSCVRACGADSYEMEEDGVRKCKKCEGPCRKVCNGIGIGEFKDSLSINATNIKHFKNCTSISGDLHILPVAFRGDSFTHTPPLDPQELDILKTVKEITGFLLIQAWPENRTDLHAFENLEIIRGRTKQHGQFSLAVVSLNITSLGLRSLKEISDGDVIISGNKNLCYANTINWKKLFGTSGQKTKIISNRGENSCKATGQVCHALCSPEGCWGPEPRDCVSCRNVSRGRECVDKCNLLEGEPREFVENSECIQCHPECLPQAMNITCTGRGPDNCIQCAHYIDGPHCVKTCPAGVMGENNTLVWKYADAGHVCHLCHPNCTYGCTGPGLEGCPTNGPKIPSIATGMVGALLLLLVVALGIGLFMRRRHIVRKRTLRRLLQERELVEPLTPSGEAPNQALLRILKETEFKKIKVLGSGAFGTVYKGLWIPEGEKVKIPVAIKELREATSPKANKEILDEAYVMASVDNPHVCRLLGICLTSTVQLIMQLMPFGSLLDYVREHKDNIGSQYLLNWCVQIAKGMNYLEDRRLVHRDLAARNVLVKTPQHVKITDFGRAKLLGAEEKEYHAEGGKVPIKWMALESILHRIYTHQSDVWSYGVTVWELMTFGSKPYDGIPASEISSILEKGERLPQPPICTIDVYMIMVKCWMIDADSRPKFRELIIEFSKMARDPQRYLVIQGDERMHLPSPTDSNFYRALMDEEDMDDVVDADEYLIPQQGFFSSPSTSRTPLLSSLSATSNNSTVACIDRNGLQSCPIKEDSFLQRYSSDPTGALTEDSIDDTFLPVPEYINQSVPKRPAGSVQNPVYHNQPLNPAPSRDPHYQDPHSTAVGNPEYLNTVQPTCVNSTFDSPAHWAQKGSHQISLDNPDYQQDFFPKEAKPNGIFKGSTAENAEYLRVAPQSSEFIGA

| Compound | IC50 [1] [nM] | IC50 [2, 3] [nM] | IC50 ([2]; NCI-H1975 cells) [nM] |
| --- | --- | --- | --- |
| CC(C)c1ccc(N2CC(CS(C)(=O)=O)C2)c2cnc(Nc3ccnc([C@H]4C[C@@H]4C(F)F)n3)cc12 (single isomer, unassigned) [Example 16, N-(2-((1S,2S)-2-(difluoromethyl)cyclopropyl)pyrimidin-4-yl)-5-isopropyl-8-(3-((methylsulfonyl)methyl)azetidin-1-yl)isoquinolin-3-amine or N-(2-((1R,2R)-2-(difluoromethyl)cyclopropyl)pyrimidin-4-yl)-5-isopropyl-8-(3-((methylsulfonyl)methyl)azetidin-1-yl)isoquinolin-3-amine] | > 100 | > 50 |  |
| CC(C)c1ccc(N2CC(CS(C)(=O)=O)C2)c2cnc(Nc3ccnc([C@H]4C[C@@H]4C(F)F)n3)cc12 (single isomer, unassigned) [Example 17, N-(2-((1S,2S)-2-(difluoromethyl)cyclopropyl)pyrimidin-4-yl)-5-isopropyl-8-(3-((methylsulfonyl)methyl)azetidin-1-yl)isoquinolin-3-amine or N-(2-((1R,2R)-2-(difluoromethyl)cyclopropyl)pyrimidin-4-yl)-5-isopropyl-8-(3-((methylsulfonyl)methyl)azetidin-1-yl)isoquinolin-3-amine] | > 100 |  | > 50 |
| C[C@H](CO)c1ccc(N2CC(CS(C)(=O)=O)C2)c2cnc(Nc3ccnc(-c4cnn(C)c4)n3)cc12 (single isomer, unassigned) [Example 18, (S)-2-(3-((2-(1-methyl-1H-pyrazol-4-yl)pyrimidin-4-yl)amino)-8-(3-((methylsulfonyl)methyl)azetidin-1-yl)isoquinolin-5-yl)propan-1-ol or (R)-2-(3-((2-(1-methyl-1H-pyrazol-4-yl)pyrimidin-4-yl)amino)-8-(3-((methylsulfonyl)methyl)azetidin-1-yl)isoquinolin-5-yl)propan-1-ol] | ≤ 15 | > 50 |  |
| C[C@H](CO)c1ccc(N2CC(CS(C)(=O)=O)C2)c2cnc(Nc3ccnc(-c4cnn(C)c4)n3)cc12 (single isomer, unassigned) [Example 19, (S)-2-(3-((2-(1-methyl-1H-pyrazol-4-yl)pyrimidin-4-yl)amino)-8-(3-((methylsulfonyl)methyl)azetidin-1-yl)isoquinolin-5-yl)propan-1-ol or (R)-2-(3-((2-(1-methyl-1H-pyrazol-4-yl)pyrimidin-4-yl)amino)-8-(3-((methylsulfonyl)methyl)azetidin-1-yl)isoquinolin-5-yl)propan-1-ol] | ≤ 15 |  | > 50 |
| Cc1ncc(-c2nccc(Nc3cc4c(C(C)C)ccc(N5C[C@H](CS(C)(=O)=O)[C@H]5C)c4cn3)n2)s1 (single isomer, unassigned) [Example 20, 5-isopropyl-8-(2R,3S)-2-methyl-3-((methylsulfonyl)methyl)azetidin-1-yl)-N-(2-(2-methylthiazol-5-yl)pyrimidin-4-yl)isoquinolin-3-amine or 5-isopropyl-8-((2S,3R)-2-methyl-3-((methylsulfonyl)methyl)azetidin-1-yl)-N-(2-(2-methylthiazol-5-yl)pyrimidin-4-yl)isoquinolin-3-amine] | ≤ 15 |  | < 10 |
| Cc1ncc(-c2nccc(Nc3cc4c(C(C)C)ccc(N5C[C@H](CS(C)(=O)=O)[C@H]5C)c4cn3)n2)s1 (single isomer, unassigned) [Example 21, 5-isopropyl-8-((2S,3S)-2-methyl-3-((methylsulfonyl)methyl)azetidin-1-yl)-N-(2-(2-methylthiazol-5-yl)pyrimidin-4-yl)isoquinolin-3-amine or 5-isopropyl-8-((2S,3R)-2-menthyl-3-((methylsulfonyl)methyl)azetidin-1-yl)-N-(2-(2-methylthiazol-5-yl)pyrimidin-4-yl)isoquinolin-3-amine] | > 100 |  | > 50 |
| CC(C)c1ccc(N2C[C@H](CS(C)(=O)=O)[C@H]2C)c2cnc(Nc3ccnc(-c4cccnc4)n3)cc12 (single isomer, unassigned) [Example 22, 5-isopropyl-8-((2R,3S)-2-methyl-3-((methylsulfonyl)methyl)azetidin-1-yl)-N-(2-(pyridin-3-yl)pyrimidin-4-yl)isoquinolin-3-amine or 5-isopropyl-8-((2S,3R)-2 methyl-3-((methylsulfonyl)methyl)azetidin-1-yl)-N-(2-(pyridin-3-yl)pyridin-4-yl) isoquinolin-3-amine] | ≤ 15 | < 10 |  |
| CC(C)c1ccc(N2C[C@H](CS(C)(=O)=O)[C@H]2C)c2cnc(Nc3ccnc(-c4cnn(C)c4)n3)cc12 (single isomer, unassigned) [Example 23, 5-isopropyl-N-(2-(1-methyl-1H-pyrazol-4-yl)pyrmidin-4-yl)-8-((2S,3S)-2-methyl-3-((methylsulfonyl)methy)azetidin-1-yl)isoquinolin-3-amine or 5-isopropyl-N-(2-(1-methyl-1H-pyrazol-4-yl)pyrimidin-4-yl)-8-((2S,3R)-2-methyl-3-((methylsulfonyl)methyl)azetidin-1-yl)isoquinolin-3-amine] | ≤ 15 | 10 to 20 |  |
| CC(C)c1cnc(N2CC(CS(C)(=O)=O)C2)c2cnc(Nc3ccnc([C@]4(C)C[C@@H](O)C4)n3)cc12 (single isomer, unassigned) [Example 24, (1r,3r)-3-(4-((5-isopropyl-8-(3-((methylsulfonyl)methyl)azetidin-1-yl)-2,7-naphthyridin-3-yl)amino)pyrimidin-2-yl)-3-methylcyclobutan-1-ol or (1s,3s)-3-(4-((5-isopropyl-8-(3-((methylsulfonyl)methyl)azetidin-1-yl)-2,7-naphthyridin-3-yl)amino)pyrimidin-2-yl)-3-methylcyclobutan-1-ol] | 30 to 100 | > 50 |  |
| CC(C)c1cnc(N2CC(CS(C)(=O)=O)C2)c2cnc(Nc3ccnc([C@]4(C)C[C@@H](O)C4)n3)cc12 (single isomer, unassigned) [Example 25, (1r,3r)-3-(4-((5-isopropyl-8-(3-((methylsulfonyl)methyl)azetidin-1-yl)-2,7-naphthyridin-3-yl)amino)pyrimidin-2-yl)-3-methylcyclobutan-1-ol or (1s,3s)-3-(4-((5-isopropyl-8-(3-((methylsulfonyl)methyl)azetidin-1-yl)-2,7-naphthyridin-3-yl)amino)pyrimidin-2-yl)-3-methylcyclobutan-1-ol] | > 100 |  | > 50 |
| Cc1ncc(-c2nccc(Nc3cc4c(C(C)C)cnc(N5CC(CS(C)(=O)=O)C5)c4cn3)n2)s1 [Example 1, 5-isopropyl-8-(3-((methylsulfonyl)methyl)azetidin-1-yl)-N-(2-(2-methylthiazol-5-yl)pyrimidin-4-yl)-2,7-naphthyridin-3-amine] | ≤ 15 | 10 to 20 |  |
| CC(C)c1cnc(N2CC(CS(C)(=O)=O)C2)c2cnc(Nc3ccnc(-c4cnn(C)c4)n3)cc12 [Example 2, 5-isopropyl-N-(2-(1-methyl-1H-pyrazol-4-yl)pyrimidin-4-yl)-8-(3-((methylsulfonyl)methyl)azetidin-1-yl)-2,7-naphthyridin-3-amine] | ≤ 15 | 10 to 20 |  |
| CC(C)c1cnc(N2CC(CS(C)(=O)=O)C2)c2cnc(Nc3ccnc(C4(C)CC(=O)C4)n3)cc12 [Example 3, 3-(4-((5-isopropyl-8-(3-((methylsulfonyl)methyl)azetidin-1-yl)-2,7-naphthyridin-3-yl)amino)pyrimidin-2-yl)-3-methylcyclobutan-1-one] | > 100 | > 50 |  |
| CC(C)c1cnc(N2CC(CS(C)(=O)=O)C2)c2cnc(Nc3ccnc(C45CC(CO)(C4)C5)n3)cc12 [Example 4, (3-(4-((5-isopropyl-8-(3-((methylsulfonyl)methyl)azetidin-1-yl)-2,7-naphthyridin-3-yl)amino)pyrimidin-2-yl)bicyclo[1.1.1]pentan-1-yl)methanol] | 15 to 20 | > 50 |  |
